Data: ChEMBL document CHEMBL5678818, “Discovery of potent SOS1 inhibitors that block RAS activation via disruption of the RAS-SOS1 interaction” (Proc Natl Acad Sci U S A, 2019)

Assays:
[1] = target: T1, Cyclin-dependent kinase-like 2 (Homo sapiens) (UniProt Q92772); assay: Inhibition of CDKL2 (unknown origin) assessed as residual activity at 1000 nM by KINOMEscan analysis relative to control
T1 sequence (whole entry): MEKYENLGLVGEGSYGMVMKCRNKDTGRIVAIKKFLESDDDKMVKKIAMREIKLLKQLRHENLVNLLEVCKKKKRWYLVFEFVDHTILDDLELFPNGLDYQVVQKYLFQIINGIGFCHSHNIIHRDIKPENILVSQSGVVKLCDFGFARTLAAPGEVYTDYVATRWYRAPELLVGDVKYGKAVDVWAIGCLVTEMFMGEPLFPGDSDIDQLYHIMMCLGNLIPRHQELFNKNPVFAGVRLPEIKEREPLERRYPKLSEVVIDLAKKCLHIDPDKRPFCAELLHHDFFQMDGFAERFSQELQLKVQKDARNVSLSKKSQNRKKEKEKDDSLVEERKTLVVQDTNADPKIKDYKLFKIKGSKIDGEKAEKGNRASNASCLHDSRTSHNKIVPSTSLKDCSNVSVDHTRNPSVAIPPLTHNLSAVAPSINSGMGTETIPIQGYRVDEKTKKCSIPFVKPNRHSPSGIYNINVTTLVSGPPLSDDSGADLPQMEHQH

[2] = target: Epithelial discoidin domain-containing receptor 1 (Homo sapiens) (UniProt Q08345); assay: Inhibition of DDR1 (unknown origin) assessed as residual activity at 1000 nM by KINOMEscan analysis relative to control
Chain of Epithelial discoidin domain-containing receptor 1 (Homo sapiens) (Q08345 whole entry, the tested form may be a part): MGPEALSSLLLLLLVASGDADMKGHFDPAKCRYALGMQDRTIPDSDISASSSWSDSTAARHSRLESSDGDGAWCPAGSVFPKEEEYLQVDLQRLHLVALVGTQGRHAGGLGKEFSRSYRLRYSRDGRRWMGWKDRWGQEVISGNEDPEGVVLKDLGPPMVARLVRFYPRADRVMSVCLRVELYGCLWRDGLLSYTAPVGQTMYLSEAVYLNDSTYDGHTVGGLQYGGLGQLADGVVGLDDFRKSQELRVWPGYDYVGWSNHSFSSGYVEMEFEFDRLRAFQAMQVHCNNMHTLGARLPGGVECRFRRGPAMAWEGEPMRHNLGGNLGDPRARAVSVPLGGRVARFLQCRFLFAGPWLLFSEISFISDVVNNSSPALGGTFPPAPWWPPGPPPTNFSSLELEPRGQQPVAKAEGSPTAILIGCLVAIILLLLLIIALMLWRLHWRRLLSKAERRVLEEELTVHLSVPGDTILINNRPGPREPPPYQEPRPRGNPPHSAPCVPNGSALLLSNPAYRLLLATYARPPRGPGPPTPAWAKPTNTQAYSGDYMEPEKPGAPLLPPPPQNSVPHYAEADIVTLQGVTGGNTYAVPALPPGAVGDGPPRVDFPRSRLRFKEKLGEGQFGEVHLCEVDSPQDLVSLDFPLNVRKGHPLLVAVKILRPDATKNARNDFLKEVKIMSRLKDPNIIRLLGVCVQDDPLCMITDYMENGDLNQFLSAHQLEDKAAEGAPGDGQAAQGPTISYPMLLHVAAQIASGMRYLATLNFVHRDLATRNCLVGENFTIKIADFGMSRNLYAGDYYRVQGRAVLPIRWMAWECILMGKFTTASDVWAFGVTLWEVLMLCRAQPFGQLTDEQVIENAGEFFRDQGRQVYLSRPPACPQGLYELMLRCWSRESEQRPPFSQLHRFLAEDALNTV

[3] = target: T2, Ephrin type-B receptor 6 (Homo sapiens) (UniProt O15197); assay: Inhibition of EPHB6 (unknown origin) assessed as residual activity at 1000 nM by KINOMEscan analysis relative to control
T2 sequence (whole entry): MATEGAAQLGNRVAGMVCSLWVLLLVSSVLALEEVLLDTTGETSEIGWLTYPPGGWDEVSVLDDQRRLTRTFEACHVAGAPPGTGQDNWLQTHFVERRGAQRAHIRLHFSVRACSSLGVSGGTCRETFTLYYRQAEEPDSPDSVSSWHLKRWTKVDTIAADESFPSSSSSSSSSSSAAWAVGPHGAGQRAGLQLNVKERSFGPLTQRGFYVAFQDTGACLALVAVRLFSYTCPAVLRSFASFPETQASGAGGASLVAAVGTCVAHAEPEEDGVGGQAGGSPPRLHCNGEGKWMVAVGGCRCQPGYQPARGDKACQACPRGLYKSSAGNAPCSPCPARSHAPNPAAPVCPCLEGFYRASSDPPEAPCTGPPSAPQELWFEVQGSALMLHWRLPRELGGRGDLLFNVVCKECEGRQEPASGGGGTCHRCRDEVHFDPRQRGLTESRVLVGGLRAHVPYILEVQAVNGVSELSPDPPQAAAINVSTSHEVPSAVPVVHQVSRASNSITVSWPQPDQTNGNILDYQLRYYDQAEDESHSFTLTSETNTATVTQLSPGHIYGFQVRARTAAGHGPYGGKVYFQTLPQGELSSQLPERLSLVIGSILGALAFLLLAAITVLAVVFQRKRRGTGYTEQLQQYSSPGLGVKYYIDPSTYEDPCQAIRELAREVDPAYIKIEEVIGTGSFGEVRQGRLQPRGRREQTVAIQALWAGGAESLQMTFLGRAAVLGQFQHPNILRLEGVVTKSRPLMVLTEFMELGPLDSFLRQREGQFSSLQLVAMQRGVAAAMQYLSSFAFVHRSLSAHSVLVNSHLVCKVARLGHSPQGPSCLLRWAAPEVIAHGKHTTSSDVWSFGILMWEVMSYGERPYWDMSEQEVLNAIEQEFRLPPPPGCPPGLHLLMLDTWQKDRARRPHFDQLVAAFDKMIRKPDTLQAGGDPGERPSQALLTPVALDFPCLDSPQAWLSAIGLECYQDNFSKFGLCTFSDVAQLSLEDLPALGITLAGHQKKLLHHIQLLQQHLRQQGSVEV

[4] = target: T3, Mitogen-activated protein kinase kinase kinase 15 (Homo sapiens) (UniProt Q6ZN16); assay: Inhibition of MAP3K15 (unknown origin) assessed as residual activity at 1000 nM by KINOMEscan analysis relative to control
T3 sequence (whole entry): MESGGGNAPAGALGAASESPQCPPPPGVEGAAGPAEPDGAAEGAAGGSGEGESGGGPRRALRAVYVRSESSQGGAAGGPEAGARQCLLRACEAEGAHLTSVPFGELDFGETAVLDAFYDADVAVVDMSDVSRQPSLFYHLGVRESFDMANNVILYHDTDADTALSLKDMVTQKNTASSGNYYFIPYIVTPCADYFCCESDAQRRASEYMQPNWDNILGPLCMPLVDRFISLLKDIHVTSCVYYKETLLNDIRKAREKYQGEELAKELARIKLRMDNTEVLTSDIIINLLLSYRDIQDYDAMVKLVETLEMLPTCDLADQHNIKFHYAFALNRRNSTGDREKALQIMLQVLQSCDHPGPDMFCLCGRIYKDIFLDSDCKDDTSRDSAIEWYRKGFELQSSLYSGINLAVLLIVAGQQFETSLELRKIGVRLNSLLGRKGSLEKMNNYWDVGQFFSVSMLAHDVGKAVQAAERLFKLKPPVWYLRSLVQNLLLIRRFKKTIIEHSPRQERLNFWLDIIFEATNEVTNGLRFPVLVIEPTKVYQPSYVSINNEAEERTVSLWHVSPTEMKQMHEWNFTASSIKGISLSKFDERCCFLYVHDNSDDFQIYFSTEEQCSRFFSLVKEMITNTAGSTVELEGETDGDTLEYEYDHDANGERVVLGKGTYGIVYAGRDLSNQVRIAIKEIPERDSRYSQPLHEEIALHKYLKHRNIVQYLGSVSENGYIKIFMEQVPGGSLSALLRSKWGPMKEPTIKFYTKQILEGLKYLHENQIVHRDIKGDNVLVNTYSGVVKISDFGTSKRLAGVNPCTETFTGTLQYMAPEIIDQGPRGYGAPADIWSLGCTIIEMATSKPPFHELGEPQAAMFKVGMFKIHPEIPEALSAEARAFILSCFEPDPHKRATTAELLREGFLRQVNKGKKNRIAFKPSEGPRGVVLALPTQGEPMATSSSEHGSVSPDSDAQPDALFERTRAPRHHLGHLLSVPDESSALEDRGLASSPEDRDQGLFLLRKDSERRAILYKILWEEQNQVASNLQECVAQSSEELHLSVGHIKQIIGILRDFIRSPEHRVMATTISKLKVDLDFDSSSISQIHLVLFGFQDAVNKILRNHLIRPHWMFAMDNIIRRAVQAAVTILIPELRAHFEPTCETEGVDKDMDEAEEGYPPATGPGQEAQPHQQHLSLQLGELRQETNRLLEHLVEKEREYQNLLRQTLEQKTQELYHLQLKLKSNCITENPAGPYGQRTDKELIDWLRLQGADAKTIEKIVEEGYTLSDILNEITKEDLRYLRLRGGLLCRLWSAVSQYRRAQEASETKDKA

[5] = target: SRSF protein kinase 1 (Homo sapiens) (UniProt Q96SB4); assay: Inhibition of SRPK1 (unknown origin) assessed as residual activity at 1000 nM by KINOMEscan analysis relative to control
Chain of SRSF protein kinase 1 (Homo sapiens) (Q96SB4 whole entry): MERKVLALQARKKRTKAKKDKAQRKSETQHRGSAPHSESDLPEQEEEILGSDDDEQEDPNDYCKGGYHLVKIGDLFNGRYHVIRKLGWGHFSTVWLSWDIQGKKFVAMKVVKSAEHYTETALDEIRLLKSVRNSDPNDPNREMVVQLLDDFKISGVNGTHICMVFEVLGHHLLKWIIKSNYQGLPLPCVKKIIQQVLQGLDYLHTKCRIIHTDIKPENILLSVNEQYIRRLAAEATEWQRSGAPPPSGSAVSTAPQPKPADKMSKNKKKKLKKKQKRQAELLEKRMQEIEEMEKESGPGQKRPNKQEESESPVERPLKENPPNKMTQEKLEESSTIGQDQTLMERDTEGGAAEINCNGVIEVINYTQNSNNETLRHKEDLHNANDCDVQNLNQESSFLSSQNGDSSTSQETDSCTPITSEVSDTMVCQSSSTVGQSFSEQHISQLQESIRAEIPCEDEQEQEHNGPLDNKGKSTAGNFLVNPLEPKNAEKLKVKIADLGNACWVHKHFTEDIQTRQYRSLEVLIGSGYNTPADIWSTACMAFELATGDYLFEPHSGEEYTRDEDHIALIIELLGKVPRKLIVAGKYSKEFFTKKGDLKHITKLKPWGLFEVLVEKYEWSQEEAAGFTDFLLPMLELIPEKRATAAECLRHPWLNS

Structure (SMILES) | Activity [1] [%] | Activity [2] [%] | Activity [3] [%] | Activity [4] [%] | Activity [5] [%]
COc1cc2nc(C)nc(N[C@H](C)c3cccc(-c4cn[nH]c4)c3)c2cc1OC | 81 | 95 | 100 | 63 | 77
COc1cc2ncnc(N[C@H](C)c3cccc4ccccc34)c2cc1OC | 97 | 100 | 73 | 80 | 98
